Data as given in patent publication US20260167656A1, “PHOSPHORAMIDATE COMPOUNDS AND USES THEREOF” (ALLORION THERAPEUTICS INC, priority 2022, published 2026).

Key:
[1] = tested on: non-small cell lung cancer cell line H460; experiment: In vitro human cancer cell line cytotoxicity (proliferation) assay in H460, CellTiter-Glo, 72 hours; format: cell-based; details: H460 cells, DMSO condition (no AKR1C3 inhibitor), read-out: CTG H460: Avg IC50 (nM) [Assay Condition: DMSO]
Description: Biological Example 1. In Vitro Human Cancer Cell Line Cytotoxicity Assay
IC50 values in nanomolar reported here were derived from in vitro proliferation assay data in non-small cell lung cancer cell line H460.
(§1) Specifically, exponentially growing cells were seeded at density of 3×10^3 cells per well in 96-well plate and incubated at 37° C. in 5% CO2, 95% air and 100% relative humidity for 24 hours before adding compounds. Compounds were solubilized in 100% DMSO at 10 mM. Compounds were added to the plate using Tecan D300e® digital Dispenser. After drug addition, the plates were incubated for an additional 72 hours at 37° C. in 5% CO2, 95% air and 100% relative humidity. At the end of the incubation, cell viability was quantified with CellTiter-Glo® assay.

[2] = tested on: non-small cell lung cancer cell line H460; experiment: H460 proliferation assay in the presence of 3 uM ASP9521 (AKR1C3 specific inhibitor); format: cell-based, human; details: H460 cells, CellTiter-Glo, 72 hours, in the presence of 3 uM ASP9521 added 4 hours prior to compounds; read-out: CTG H460: Avg IC50 (nM) [Assay Condition: ASP9521]
Description: as §1
To further confirm that compounds were activated by human AKR1C3, H460 proliferation assay were also performed in the presence of 3 uM […], an AKR1C3 specific inhibitor. ASP9521 were added to the plates 4 hours prior to the addition of compounds.

Structure (SMILES) | IC50 [1] | IC50 [2] | IC50 ([1]; Homo sapiens, NCI-H460, 72 h)
O=[N+]([O-])c1ccc2c(c1Oc1ccnc(C3CC3)c1)CCC2OP(=O)(N1CC1)N1CC1 (racemic) [Example 312] | < 10 nM | 312 nM | –
O=[N+]([O-])c1ccc2c(c1Oc1cncc(C3CC3)c1)CCC2OP(=O)(N1CC1)N1CC1 (racemic) [Example 315] | < 10 nM | 679 nM | –
O=[N+]([O-])c1ccc2c(c1Oc1cccc(-c3ccc(F)cn3)c1)CCC2OP(=O)(N1CC1)N1CC1 (racemic) [Example 320] | < 10 nM | 2230 nM | –
CC(C)(C)c1cncc(Oc2c([N+](=O)[O-])ccc3c2CCC3OP(=O)(N2CC2)N2CC2)c1 (racemic) [Example 324] | < 10 nM | 445 nM | –
CC1(C)CN(c2cccc(Oc3c([N+](=O)[O-])ccc4c3CCC4OP(=O)(N3CC3)N3CC3)c2)C(=O)O1 (racemic) [Example 416] | < 10 nM | 275 nM | –
O=[N+]([O-])c1ccc2c(c1Oc1ccc(F)c(-n3cc(F)cn3)c1)CCC2OP(=O)(N1CC1)N1CC1 (racemic) [Example 418] | < 10 nM | 1210 nM | –
O=[N+]([O-])c1ccc2c(c1Oc1ccc(-n3cc(F)cn3)cc1)CCC2OP(=O)(N1CC1)N1CC1 (racemic) [Example 419] | < 10 nM | 1180 nM | –
O=[N+]([O-])c1ccc2c(c1Oc1cccc(OC(F)(F)F)c1)CCC2OP(=O)(N1CC1)N1CC1 (racemic) [Example 447] | < 10 nM | 547 nM | –
CC(C)Oc1cccc(Oc2c([N+](=O)[O-])ccc3c2CCC3OP(=O)(N2CC2)N2CC2)c1 (racemic) [Example 451] | < 10 nM | 1030 nM | –
O=[N+]([O-])c1ccc2c(c1Oc1cccc(OC(F)F)c1)CCC2OP(=O)(N1CC1)N1CC1 (racemic) [Example 454] | < 10 nM | 559 nM | –
O=[N+]([O-])c1ccc2c(c1Oc1cccc(OC3CCC3)c1)CCC2OP(=O)(N1CC1)N1CC1 (racemic) [Example 459] | < 10 nM | 845 nM | –
O=[N+]([O-])c1ccc2c(c1Oc1cccc(OC3CCCC3)c1)CCC2OP(=O)(N1CC1)N1CC1 (racemic) [Example 460] | < 10 nM | 1230 nM | –
CSc1ccc(Oc2c([N+](=O)[O-])ccc3c2CCC3OP(=O)(N2CC2)N2CC2)cc1 (racemic) [Example 461] | < 10 nM | 547 nM | –
O=[N+]([O-])c1ccc2c(c1Oc1cccc(OC3COC3)c1)CCC2OP(=O)(N1CC1)N1CC1 (racemic) [Example 465] | < 10 nM | 705 nM | –
O=[N+]([O-])c1ccc2c(c1Oc1cccc(OCC(F)(F)F)c1)CCC2OP(=O)(N1CC1)N1CC1 (racemic) [Example 473] | < 10 nM | 329 nM | –
O=[N+]([O-])c1ccc2c(c1Oc1ccc(F)c(OC(F)F)c1)CCC2OP(=O)(N1CC1)N1CC1 (racemic) [Example 475] | < 10 nM | 509 nM | –
COc1ccn(Cc2cc(C(C)OP(=O)(N3CC3)N3CC3)ccc2[N+](=O)[O-])c(=O)c1 (single isomer, unassigned) [Example 2] | – | > 10000 nM | ≥ 100 nM
COc1ccnc(OCc2cc(C(C)OP(=O)(N3CC3)N3CC3)ccc2[N+](=O)[O-])c1 (single isomer, unassigned) [Example 3] | – | > 3410 nM | ≥ 100 nM
CN(C)C(=O)c1ccc(Oc2c([N+](=O)[O-])ccc3c2CCC3OP(=O)(N2CC2)N2CC2)cc1 (single isomer, unassigned) [Example 17] | – | 758 nM | 10 to 50 nM
CN(C)C(=O)c1ccc(Oc2c([N+](=O)[O-])ccc3c2CCC3OP(=O)(N2CC2)N2CC2)cc1 (single isomer, unassigned) [Example 18] | < 10 nM | 501 nM | –
O=[N+]([O-])c1ccc2c(c1Oc1ccc(-c3ccccc3)cc1)CCC2OP(=O)(N1CC1)N1CC1 (single isomer, unassigned) [Example 19] | – | 593 nM | < 10 nM
O=[N+]([O-])c1ccc2c(c1Oc1ccc(-c3ccccc3)cc1)CCC2OP(=O)(N1CC1)N1CC1 (single isomer, unassigned) [Example 20] | < 10 nM | 1190 nM | –
O=[N+]([O-])c1ccc2c(c1Oc1ccc(-c3ccc(F)cc3)c(F)c1)CCC2OP(=O)(N1CC1)N1CC1 (single isomer, unassigned) [Example 27] | – | 1170 nM | < 10 nM

Structure (SMILES) | IC50 [1] | IC50 [2] | IC50 ([1]; Homo sapiens, NCI-H460, 72 h)
O=[N+]([O-])c1ccc2c(c1Oc1ccc(-c3ccc(F)cc3)c(F)c1)CCC2OP(=O)(N1CC1)N1CC1 (single isomer, unassigned) [Example 28] | < 10 nM | 870 nM | –
O=[N+]([O-])c1ccc2c(c1Oc1cccc(-c3ccccc3)c1)CCC2OP(=O)(N1CC1)N1CC1 (single isomer, unassigned) [Example 30] | – | 1510 nM | < 10 nM
O=[N+]([O-])c1ccc2c(c1Oc1cccc(-c3ccccc3)c1)CCC2OP(=O)(N1CC1)N1CC1 (single isomer, unassigned) [Example 31] | < 10 nM | 1550 nM | –
CN(C)C(=O)c1cccc(Oc2c([N+](=O)[O-])ccc3c2CCC3OP(=O)(N2CC2)N2CC2)c1 (single isomer, unassigned) [Example 32] | – | 145 nM | < 10 nM
CN(C)C(=O)c1cccc(Oc2c([N+](=O)[O-])ccc3c2CCC3OP(=O)(N2CC2)N2CC2)c1 (single isomer, unassigned) [Example 33] | < 10 nM | 476 nM | –
O=C1c2cc(Oc3c([N+](=O)[O-])ccc4c3CC[C@H]4OP(=O)(N3CC3)N3CC3)ccc2CN1C1CC1 (single isomer, unassigned) [Example 38] | – | 537 nM | < 10 nM
O=C1c2cc(Oc3c([N+](=O)[O-])ccc4c3CC[C@@H]4OP(=O)(N3CC3)N3CC3)ccc2CN1C1CC1 (single isomer, unassigned) [Example 39] | – | 561 nM | < 10 nM
O=[N+]([O-])c1ccc2c(c1Oc1ccc(-c3ccccn3)cc1)CC[C@@H]2OP(=O)(N1CC1)N1CC1 (single isomer, unassigned) [Example 40] | – | 929 nM | < 10 nM
O=[N+]([O-])c1ccc2c(c1Oc1ccc(-c3ccccn3)cc1)CC[C@H]2OP(=O)(N1CC1)N1CC1 (single isomer, unassigned) [Example 41] | – | 1090 nM | < 10 nM
CN1Cc2cc(Oc3c([N+](=O)[O-])ccc4c3CCC4OP(=O)(N3CC3)N3CC3)ccc2C1=O (single isomer, unassigned) [Example 42] | – | 123 nM | < 10 nM
CN1Cc2cc(Oc3c([N+](=O)[O-])ccc4c3CCC4OP(=O)(N3CC3)N3CC3)ccc2C1=O (single isomer, unassigned) [Example 43] | < 10 nM | 314 nM | –
O=[N+]([O-])c1ccc2c(c1Oc1ccc(-c3cccnc3)cc1)CCC2OP(=O)(N1CC1)N1CC1 (single isomer, unassigned) [Example 54] | < 10 nM | 516 nM | –
Cn1cc(-c2ccc(Oc3c([N+](=O)[O-])ccc4c3CCC4OP(=O)(N3CC3)N3CC3)cc2)cn1 (single isomer, unassigned) [Example 58] | 50 to 100 nM | 1010 nM | –
Cn1cc(-c2ccc(Oc3c([N+](=O)[O-])ccc4c3CCC4OP(=O)(N3CC3)N3CC3)cc2)cn1 (single isomer, unassigned) [Example 59] | < 10 nM | 1360 nM | –
Cn1c(=O)oc2ccc(Oc3c([N+](=O)[O-])ccc4c3CCC4OP(=O)(N3CC3)N3CC3)cc21 (single isomer, unassigned) [Example 64] | – | 722 nM | < 10 nM
Cn1c(=O)oc2ccc(Oc3c([N+](=O)[O-])ccc4c3CCC4OP(=O)(N3CC3)N3CC3)cc21 (single isomer, unassigned) [Example 65] | < 10 nM | 279 nM | –
O=C(c1cccc(Oc2c([N+](=O)[O-])ccc3c2CCC3OP(=O)(N2CC2)N2CC2)c1)N1CCCCC1 (single isomer, unassigned) [Example 68] | – | 1160 nM | < 10 nM
O=C(c1cccc(Oc2c([N+](=O)[O-])ccc3c2CCC3OP(=O)(N2CC2)N2CC2)c1)N1CCCCC1 (single isomer, unassigned) [Example 69] | < 10 nM | 573 nM | –
Cn1cc(-c2cccc(Oc3c([N+](=O)[O-])ccc4c3CCC4OP(=O)(N3CC3)N3CC3)c2)cn1 (single isomer, unassigned) [Example 76] | – | 1120 nM | 10 to 50 nM
Cn1cc(-c2cccc(Oc3c([N+](=O)[O-])ccc4c3CCC4OP(=O)(N3CC3)N3CC3)c2)cn1 (single isomer, unassigned) [Example 77] | < 10 nM | 1890 nM | –
O=C(c1cccc(Oc2c([N+](=O)[O-])ccc3c2CCC3OP(=O)(N2CC2)N2CC2)c1)N1CCOCC1 (single isomer, unassigned) [Example 125] | – | 766 nM | < 10 nM
O=C(c1cccc(Oc2c([N+](=O)[O-])ccc3c2CCC3OP(=O)(N2CC2)N2CC2)c1)N1CCOCC1 (single isomer, unassigned) [Example 126] | < 10 nM | 159 nM | –
